Source: ChEMBL document CHEMBL6078677, “Discovery and optimization of tetrahydroacridine derivatives as a novel class of antibiotics against multidrug-resistant Gram-positive pathogens by targeting type I signal peptidase and disrupting bacterial membrane” (Eur J Med Chem, 2025)
≈ marks a conversion by molar mass, not a printed value. Calls of active or inactive are those of the source. No cut-off for these calls is given here.

How the values were obtained:
Enterococcus faecium [1] = assay: Antimicrobial activity against Enterococcus faecium QF31 harboring erythromycin resistance rRNA methylase B and chloramphenicol-florfenicol resistance methylase assessed as inhibition of visible growth of bacteria incubated for 20 hrs by broth microdilution method; type: functional
Streptococcus suis = assay: Antimicrobial activity against Streptococcus suis P1/7 assessed as inhibition of visible growth of bacteria incubated for 20 hrs by broth microdilution method; type: functional
Staphylococcus aureus [2] = assay: Antimicrobial activity against Staphylococcus aureus YZSA-15 harboring erythromycin resistance rRNA methylase C and vancomycin resistance locus assessed as inhibition of visible growth of bacteria incubated for 20 hrs by broth microdilution method; type: functional
Staphylococcus aureus [3] = assay: microbe, parasite or virus in culture; type: functional; details: M147-2, time 20 hrs
Description: Antimicrobial activity against Staphylococcus aureus M147-2 harboring erythromycin resistance rRNA methylase B, tetracycline efflux protein L and chloramphenicol-florfenicol resistance methylase assessed as inhibition of visible growth of bacteria incubated for 20 hrs by broth microdilution method

Enterococcus faecium [4] = assay: Antimicrobial activity against Enterococcus faecium MC38 harboring erythromycin resistance rRNA methylase B and oxazolidinone-phenicol transferable resistance gene assessed as inhibition of visible growth of bacteria incubated for 20 hrs by broth microdilution method; type: functional
Enterococcus faecalis = assay: Antimicrobial activity against Enterococcus faecalis JH2-2 assessed as inhibition of visible growth of bacteria incubated for 20 hrs by broth microdilution method; type: functional
Streptococcus agalactiae = assay: Antimicrobial activity against Streptococcus agalactiae DL03 harboring erythromycin-resistance rRNA methylase B assessed as inhibition of visible growth of bacteria incubated for 20 hrs by broth microdilution method; type: functional
Staphylococcus aureus [5] = assay: Bactericidal activity against Staphylococcus aureus ATCC 29213 assessed as decrease in bacterial number measured within 12 hrs by time-kill kinetics assay; type: functional, organism-based
Staphylococcus aureus [6] = assay: Bactericidal activity against Staphylococcus aureus ATCC 29213 assessed as bacterial eradication at 4 times of MIC measured after 24 hrs by time-kill kinetics assay relative to control; type: functional
Staphylococcus aureus [7] = assay: Bactericidal activity against Staphylococcus aureus ATCC 29213 assessed as bacterial killing at 8 times of MIC measured within 12 hrs by time-kill kinetics assay; type: functional, organism-based
[8] = Cytotoxicity against human HEp-2 cells assessed as reduction in cell viability incubated for 48 hrs by CCK8 assay; type: toxicity, cell-based
[9] = Cytotoxicity against human HEp-2 cells assessed as cell viability at 4 times of MIC incubated for 48 hrs by CCK8 assay (reference value: 100 %); type: toxicity, cell-based; details: read-out: Activity
[10] = Cytotoxicity against human HEp-2 cells assessed as cell viability at 1 time of MIC incubated for 48 hrs by CCK8 assay (reference value: 100 %); type: toxicity, cell-based; details: read-out: Activity
[11] = Cytotoxicity against human Caco-2 cells assessed as cell viability at 8 times of MIC incubated for 48 hrs by CCK8 assay (reference value: 99.54 %); type: toxicity, cell-based; details: read-out: Activity
[12] = Cytotoxicity against human Caco-2 cells assessed as cell viability at 2 times of MIC incubated for 48 hrs by CCK8 assay (reference value: 99.54 %); type: toxicity, cell-based; details: read-out: Activity
[13] = Cytotoxicity against human Caco-2 cells assessed as cell viability at 1 time of MIC incubated for 48 hrs by CCK8 assay (reference value: 99.54 %); type: toxicity, cell-based; details: read-out: Activity
[14] = Hemolytic activity in Kunming mouse erythrocytes assessed as hemolysis at 16 times of MIC measured after 1 hrs by absorbance based assay relative to control; type: toxicity, cell-based, Erythrocyte; details: read-out: Activity
[15] = Hemolytic activity in Kunming mouse erythrocytes assessed as hemolysis at 8 times of MIC measured after 1 hrs by absorbance based assay relative to control; type: toxicity, cell-based, Erythrocyte; details: read-out: Activity
[16] = Hemolytic activity in Kunming mouse erythrocytes assessed as hemolysis at 4 times of MIC measured after 1 hrs by absorbance based assay relative to control; type: toxicity, cell-based, Erythrocyte; details: read-out: Activity
[17] = Hemolytic activity in Kunming mouse erythrocytes assessed as hemolysis at 1 time of MIC measured after 1 hrs by absorbance based assay relative to control; type: toxicity, cell-based, Erythrocyte; details: read-out: Activity
[18] = Acute toxicity in ICR mouse model assessed as effect on animal survival at 25 to 100 mg/kg, IG administered for 7 days; type: organism-based; details: in vivo, po, 168 h, dose 25-100 mg/kg, time 7 day
[19] = Acute toxicity in ICR mouse model assessed as change in heart pathology at 25 to 100 mg/kg, IG administered for 7 days by H and E staining based analysis; type: organism-based; details: in vivo, po, 168 h, dose 25-100 mg/kg, time 7 day
[20] = Acute toxicity in ICR mouse model assessed as change in spleen pathology at 25 to 100 mg/kg, IG administered for 7 days by H and E staining based analysis; type: organism-based; details: in vivo, po, 168 h, dose 25-100 mg/kg, time 7 day
[21] = Acute toxicity in ICR mouse model assessed as change in lung pathology at 25 to 100 mg/kg, IG administered for 7 days by H and E staining based analysis; type: organism-based; details: in vivo, po, 168 h, dose 25-100 mg/kg, time 7 day
[22] = Acute toxicity in ICR mouse model assessed as change in kidney pathology at 25 to 100 mg/kg, IG administered for 7 days by H and E staining based analysis; type: organism-based; details: in vivo, po, 168 h, dose 25-100 mg/kg, time 7 day
Signal peptidase I = Signal peptidase I (Escherichia coli K-12, UniProt P00803); assay: Binding affinity to recombinant 6His-tagged Escherichia coli LepB (77 to 324 residues) extracted from Escherichia coli BL21 (DE3) cells assessed as dissociation constant by MST analysis
Sequence of Signal peptidase I (P00803 whole entry, the tested form may be a part): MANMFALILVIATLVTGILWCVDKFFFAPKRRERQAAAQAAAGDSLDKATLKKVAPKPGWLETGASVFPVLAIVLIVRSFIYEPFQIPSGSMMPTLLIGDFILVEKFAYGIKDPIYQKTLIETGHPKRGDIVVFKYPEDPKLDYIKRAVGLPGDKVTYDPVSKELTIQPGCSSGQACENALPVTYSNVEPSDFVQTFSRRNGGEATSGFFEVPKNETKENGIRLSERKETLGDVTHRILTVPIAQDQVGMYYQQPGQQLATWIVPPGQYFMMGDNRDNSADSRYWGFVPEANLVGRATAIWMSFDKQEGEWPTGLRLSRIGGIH

Cell membrane = assay: Disruption of cell membrane integrity in Staphylococcus aureus ATCC 29213 assessed as appearance of rupture surface at 0.5 to 2 times of MIC by scanning electron microscopic analysis; type: subcellular
Staphylococcus aureus [23] = assay: Antibiofilm activity against Staphylococcus aureus ATCC 29213 assessed as eradication of preformed biofilm measured after 72 hrs by crystal violet staining based analysis; type: functional, organism-based
Staphylococcus aureus [24] = assay: Antibiofilm activity against Staphylococcus aureus ATCC 29213 assessed as eradication of preformed biofilm by measuring residual biomass at 2 microg/ml measured after 72 hrs by crystal violet staining based analysis relative to control; type: functional; details: dose 2 µg/ml
Staphylococcus aureus [25] = assay: Disruption of preformed biofilm in Staphylococcus aureus ATCC 29213 at 1 microg/ml measured after 72 hrs by crystal violet staining based analysis relative to control; type: functional; details: dose 1 µg/ml
Staphylococcus aureus [26] = assay: Antibiofilm activity in Staphylococcus aureus ATCC 29213 assessed as reduction in biofilm formation at 0.5 to 2 times of MIC measured after 72 hrs by SEM analysis; type: functional, organism-based
[27] = Metabolic stability in mouse liver microsomes assessed as half-life at 100 uM preincubated for 5 mins followed by NADPH addition and measured upto 60 mins by LC-MS/MS analysis; type: ADME, Microsome; details: time < 65 min
[28] = Metabolic stability in mouse liver microsomes assessed as intrinsic clearance at 100 uM preincubated for 5 mins followed by NADPH addition and measured upto 60 mins by LC-MS/MS analysis; type: ADME, Microsome; details: time < 65 min, read-out: CLH
[29] = Metabolic stability in rat liver microsomes assessed as hepatic extraction ratio at 100 uM preincubated for 5 mins followed by NADPH addition and measured upto 60 mins by LC-MS/MS analysis; type: ADME, Microsome; details: time < 65 min, read-out: ERH
Staphylococcus aureus [30] = assay: (§1) Antibacterial activity against methicillin-resistant Staphylococcus aureus YZSA-24 infected in cyclophosphamide-induced neutrophil depleted female ICR mouse model of skin infection assessed as log reduction in bacterial load at 1 %, TOP preadministered with cyclophosphamide for 5 days followed by bacterial administration and measured after 25 hrs of compound administration relative to vehicle group; type: functional
Staphylococcus aureus [31] = assay: as §1, with “2.5” for “1”; type: functional
Staphylococcus aureus [32] = assay: as §1, with “ampicillin” for “vehicle”; type: functional

## CC1C/C(=C\c2ccc(-c3ccc(Cl)c(C(F)(F)F)c3)s2)c2nc3ccccc3c(C(=O)O)c2C1 (racemic)
Enterococcus faecium [1]
  MIC: 2 mg/L (≈ 3.89 µM)
Streptococcus suis
  MIC: 16 mg/L (≈ 31.1 µM)
Staphylococcus aureus [2]
  MIC: 1 mg/L (≈ 1.95 µM)
Staphylococcus aureus [3]
  MIC: 1 mg/L (≈ 1.95 µM)
Enterococcus faecium [4]
  MIC: 2 mg/L (≈ 3.89 µM)
Enterococcus faecalis
  MIC: 1 mg/L (≈ 1.95 µM)
Streptococcus agalactiae
  MIC: 32 mg/L (≈ 62.3 µM)
Staphylococcus aureus [5]
  Activity: Dose-dependent-effect
Staphylococcus aureus [6]
  Activity: 100%
Staphylococcus aureus [7]
  Activity: Active
[8]
  CC50 at 48 h: 14.7 mg/L (≈ 28.5 µM)
[9]
  viability at 48 h, 4 times of MIC: 91.4%
[10]
  viability at 48 h, 1 time of MIC: 96.9%
[11]
  viability at 48 h, 8 times of MIC: 72.8%
[12]
  viability at 48 h, 2 times of MIC: 96.6%
[13]
  viability at 48 h, 1 time of MIC: 96.6%
[14]
  hemolysis at 1 h, 16 times of MIC: 74%
[15]
  hemolysis at 1 h, 8 times of MIC: 5.4%
[16]
  hemolysis at 1 h, 4 times of MIC: 0.65%
[17]
  hemolysis at 1 h, 1 time of MIC: 0%
[18]
  Activity: Non-toxic
[19]
  Activity: Non-toxic
[20]
  Activity: Non-toxic
[21]
  Activity: Non-toxic
[22]
  Activity: Non-toxic
Signal peptidase I
  Kd: 13.6 µM
Cell membrane
  Activity: Active
Staphylococcus aureus [23]
  Activity: Dose-dependent-effect
Staphylococcus aureus [24]
  Activity: 31.4%
Staphylococcus aureus [25]
  Activity: ~50%
Staphylococcus aureus [26]
  Activity: Active; Some Sections Appeared To Be Damaged And Broken
[27]
  half-life at 100 µM: > 3.08 h
[28]
  microsomal CLint at 100 µM: < 7.5 µL/min/mg
[29]
  hepatic extraction ratio at 1 h, 100 µM: < 0.21
Staphylococcus aureus [30]
  Activity: 1.27 log10CFU/ml
Staphylococcus aureus [31]
  Activity: 2.36 log10CFU/ml
Staphylococcus aureus [32]
  Activity: 1.21 log10CFU/ml
